Experimental data: ChEMBL document CHEMBL1201862, “PubChem BioAssay data set” (2004)
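Method: 48-hour compound exposure of cells in 96-well plates, five concentrations, linear interpolation of endpoints. GI50 = concentration required for 50% inhibition of growth.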 Calls of active or inactive are those of the source. Rule as the data show it: active = GI50 up to about 1.1 µM and inactive = higher.

How the values were obtained:
Experiment in all cases: NCI anticancer screen, dose series, 48 h
[1] = system: CCRF-CEM
[2] = system: SK-OV-3
[3] = system: M14
[4] = system: LOX IMVI
[5] = system: 786-0
[6] = system: HT-29
[7] = system: SK-MEL-5
[8] = system: DU-145
[9] = system: RPMI-8226
[10] = system: SW-620
[11] = system: ACHN
[12] = system: OVCAR-5
[13] = system: OVCAR-8
[14] = system: NCI-H460
[15] = system: SK-MEL-28
[16] = system: TK-10
[17] = system: HOP-62
[18] = system: RXF 393
[19] = system: HOP-92

In the case of `CN1CC2=C(N=C(S)NC2c2ccc(Cl)cc2)/C(=C/c2ccc(Cl)cc2)C1` (configuration not stated), the GI50 [1] is reported as 13.5 µM (inactive), the GI50 [2] is reported as 17.3 µM (inactive) and the GI50 [3] is reported as 18.3 µM (inactive). The GI50 [4] was 16.1 µM (inactive), the GI50 [5] was 24.4 µM (inactive) and the GI50 [6] was 16.2 µM (inactive). For the same compound, the GI50 [7] was 13.3 µM (inactive), the GI50 [8] was 14.1 µM (inactive) and the GI50 [9] was 25.8 µM (inactive). For the same compound, the GI50 [10] was 14.6 µM (inactive), the GI50 [11] was 23 µM (inactive) and the GI50 [12] was 15.8 µM (inactive). For the same compound, the GI50 [13] was 17.5 µM (inactive), the GI50 [14] was 14.8 µM (inactive) and the GI50 [15] was 18.5 µM (inactive). The GI50 [16] was 22.6 µM (inactive) and the GI50 [17] was 19.2 µM (inactive).

`COc1cc2ccnc(C#N)c2cc1OCc1ccccc1` was tested, and the GI50 [1] was > 100 µM (inactive), the GI50 [3] was > 100 µM (inactive) and the GI50 [5] was 37.4 µM (inactive). The GI50 [6] was > 100 µM (inactive), the GI50 [7] was > 100 µM (inactive) and the GI50 [9] was > 100 µM (inactive). For the same compound, the GI50 [10] was > 100 µM (inactive), the GI50 [11] was > 100 µM (inactive) and the GI50 [12] was > 100 µM (inactive). For the same compound, the GI50 [13] was > 100 µM (inactive), the GI50 [14] was > 100 µM (inactive) and the GI50 [15] was > 100 µM (inactive). For the same compound, the GI50 [16] was > 100 µM (inactive) and the GI50 [17] was 35.6 µM (inactive).

With `CNC(=O)C1OC(n2cnc3c(NCc4cccc(I)c4)nc(Cl)nc32)C(O)C1O` (configuration not stated) the GI50 [1] was 16.7 µM (inactive), the GI50 [2] was 17.2 µM (inactive) and the GI50 [3] was 10.3 µM (inactive). For the same compound, the GI50 [4] was 6.18 µM (inactive), the GI50 [5] was 18.6 µM (inactive) and the GI50 [7] was 12 µM (inactive). The GI50 [8] was 19.7 µM (inactive), the GI50 [9] was 18.9 µM (inactive) and the GI50 [10] was 14.9 µM (inactive). The GI50 [11] was 11.8 µM (inactive), the GI50 [12] was 14 µM (inactive) and the GI50 [13] was 13.8 µM (inactive). For the same compound, the GI50 [18] was 10.4 µM (inactive), the GI50 [16] was 16.3 µM (inactive) and the GI50 [17] was 12.7 µM (inactive).

For `CC(=O)OCCC[C@@H]1C(=C(C)C)CCC2[C@@]1(C)CC[C@@]1(C)C[C@](C)(CCC=C(C)C)CC[C@]21C` (some centres not stated), the GI50 [1] was > 100 µM (inactive), the GI50 [2] was > 100 µM (inactive) and the GI50 [3] was > 100 µM (inactive). For the same compound, the GI50 [5] was > 100 µM (inactive), the GI50 [6] was > 100 µM (inactive) and the GI50 [7] was > 100 µM (inactive). For the same compound, the GI50 [8] was > 100 µM (inactive), the GI50 [9] was > 100 µM (inactive) and the GI50 [10] was > 100 µM (inactive). For the same compound, the GI50 [11] was > 100 µM (inactive), the GI50 [12] was > 100 µM (inactive) and the GI50 [13] was > 100 µM (inactive). For the same compound, the GI50 [14] was > 100 µM (inactive), the GI50 [15] was > 100 µM (inactive) and the GI50 [16] was < 0.01 µM (active). For the same compound, the GI50 [17] was > 100 µM (inactive).

With `COc1ccc(/C=C/[N+](=O)[O-])cc1` the GI50 [3] was 2.79 µM (inactive), the GI50 [4] was 2.13 µM (inactive) and the GI50 [5] was 3.75 µM (inactive). The GI50 [6] was 3.24 µM (inactive), the GI50 [7] was 11.6 µM (inactive) and the GI50 [8] was 6.52 µM (inactive). For the same compound, the GI50 [10] was 2.83 µM (inactive), the GI50 [11] was 7.48 µM (inactive) and the GI50 [12] was 14.4 µM (inactive). For the same compound, the GI50 [13] was 2.67 µM (inactive), the GI50 [14] was 6.9 µM (inactive) and the GI50 [15] was 5.81 µM (inactive). The GI50 [16] was 13 µM (inactive) and the GI50 [17] was 8.07 µM (inactive).

For `O=C(Cn1c2c(c3ccccc31)CCCC2)N1CCCC1`, the GI50 [2] was > 100 µM (inactive), the GI50 [3] was > 100 µM (inactive) and the GI50 [4] was > 100 µM (inactive). The GI50 [5] was > 100 µM (inactive), the GI50 [6] was > 100 µM (inactive) and the GI50 [7] was 54.3 µM (inactive). For the same compound, the GI50 [9] was > 100 µM (inactive), the GI50 [10] was > 100 µM (inactive) and the GI50 [11] was > 100 µM (inactive). The GI50 [12] was > 100 µM (inactive), the GI50 [13] was > 100 µM (inactive) and the GI50 [14] was > 100 µM (inactive). For the same compound, the GI50 [15] was > 100 µM (inactive), the GI50 [16] was > 100 µM (inactive) and the GI50 [17] was > 100 µM (inactive). For the same compound, the GI50 [19] was > 100 µM (inactive).
